Counter-ions that a name gives are not always drawn.

The first assay concerns the target T1, rBCATc (Rattus norvegicus, UniProt P54690).
T1 construct: The supernatant was dialyzed with at least three changes of dialysis buffer; from tissue; host or cells: rat brain (high-speed supernatant of homogenate, dialyzed)
T1 sequence (P54690 1-411): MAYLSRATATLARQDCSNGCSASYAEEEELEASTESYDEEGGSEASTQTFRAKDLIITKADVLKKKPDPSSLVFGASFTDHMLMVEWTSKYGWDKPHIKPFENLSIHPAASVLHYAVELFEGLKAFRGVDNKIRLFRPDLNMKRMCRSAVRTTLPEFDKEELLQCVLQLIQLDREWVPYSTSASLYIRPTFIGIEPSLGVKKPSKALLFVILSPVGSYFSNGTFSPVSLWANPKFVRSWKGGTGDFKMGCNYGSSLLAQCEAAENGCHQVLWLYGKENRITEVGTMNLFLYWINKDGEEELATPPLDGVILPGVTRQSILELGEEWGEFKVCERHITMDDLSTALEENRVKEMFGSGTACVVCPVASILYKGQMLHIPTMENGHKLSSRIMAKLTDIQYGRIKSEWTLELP
Nature of the assay: Assay of BCAT ([14C] L-leucine transamination, rat brain supernatant enzyme). It is filed as biochemical. To be noted: 25 µM [14C] L-leucine, 10 mM 2-oxoglutarate, pH 8.3, 10 min, 22 °C; read-out: rBCATc IC50. How it is done: Enzyme preparation: Frozen rat brains were thawed on ice and minced into fine pieces. […] The samples were homogenized in Potters homogenizer (B. Bran Biotech International) at 500 rpm for ten strokes, followed by additional ten strokes at 800 rpm. The homogenates were centrifuged in Beckman J2-M1 centrifuge with rotor JA-20 at 19, 000 rpm for 1 hr. […] The resulting enzyme was stored at -80 °C for further assays.
The solutions for the reaction mixture were made in 10-fold concentrations. After 10 min incubation at room temperature (22 °C), the reaction was stopped by adding 100 µl of 15 mM p-nitrophenyl hydrazine in 2 M HCL. After a few minutes, 1 mL of a toluene-based scintillation liquid (4.5 g of PPO and 0.5 g ofbis-MSB in 1 liter of toluene) was added, the tube was capped and mixed thoroughly with a Vortex mixer. […] Six hundreds µl of organic layer from each tube was placed into scintillation vials, followed by adding 10 ml of scintillation cocktail for counting.
In the case of `O=C(O)CC1(CNCC2CCCC2)CCCCC1` [Example 37, {1-[Cyclopentylmethyl-amino)-methyl]-cyclohexyl}-acetic acid; hydrochloric salt], the IC50 (commonly the concentration needed to halve the response being measured) amounted to 1.19 mM. On the same count and under the same terms, in the case of `CNCC1(CC(=O)O)CCCCC1` [Example 54, (1-methylaminomethyl-cyclohexyl)-acetic acid; hydrochloride salt] it was 0.217 mM; in that of `CC(CO)NCC1(CC(=O)O)C[C@H](C)C[C@H](C)C1` (stereo partly drawn) [Example 43, {(3R, 5S)-1-[(2-Hydroxy-1-methyl-ethylamino)-methyl]-3,5-dimethyl-cyclohexyl}-acetic acid; hydrochloride salt], 2.08 mM.

On to `O=C(O)CC1(CNC2CCC2)CCCCC1` [Example 20, hydrochloride salt], for which the IC50 is 0.469 mM. On the same count and under the same terms, in the case of `C[C@H]1CC(CN)(CC(=O)O)C[C@@H]1C` [Example 7, (+)-(trans)-(1-Aminomethyl-3,4-dimethyl-cyclopentyl)-acetic acid hydrochloride] it was 2.17 mM; in that of `CCCNCC1(CC(=O)O)C[C@H](C)C[C@H](C)C1` (stereo in doubt) [Example 62, ((3R, 5S)-3,5-Dimethyl-1-propylaminomethyl-cyclohexyl)-acetic acid; hydrochloride salt], 4.22 mM; in that of `COC(CNCC1(CC(=O)O)CCCCC1)OC` [Example 53, {1-[2,2-Dimethoxy-ethylamino)-methyl]-cyclohexyl}-acetic acid; hydrochloride salt], 3.34 mM. In the case of `C[C@@H]1CC(CN)(CC(=O)O)C[C@H]1C` [Example 6, (+)-(trans)-(1-Aminomethyl-3,4-dimethyl-cyclopentyl)-acetic acid hydrochloride], the IC50 is 2.62 mM. On to `O=C(O)CC1(CNCC2CC2)CCCCC1` [Example 29, {1-[(Cyclopropylmethyl-amino)-methyl]-cyclohexyl}-acetic acid hydrochloride salt], for which the IC50 was found to be 0.391 mM.

Consider `O=C(O)CC1(CNCCCC(F)(F)F)CCCCC1` [Example 27, {1-[(4,4,4-Trifluoro-butylamino)-methyl]-cyclohexyl}-acetic acid; hydrochloride salt], for which the IC50 stood at 1.55 mM. With `CCCNC[C@@]1(CC(=O)O)C[C@H](C)C[C@H](C)C1` [Example 9, 1α,3β,5β-(3,5-Dimethyl-1-propylaminomethyl-cyclohexyl)-acetic acid; hydrochloride salt], the IC50 was 0.12 mM.

On to `CCC(C)CNCC1(CC(=O)O)CCCCC1` (stereo not drawn) [Example 26, {1-[(2-Methyl-butylamino)-methyl]-cyclohexyl}-acetic acid; hydrochloride salt], for which the IC50 was found to be 8.59 mM.

Turning to `O=C(O)CC1(CNCC2CCCCC2)CCCCC1` [Example 38, {1-[(Cyclohexylmethyl-amino)-methyl]-cyclohexyl}-acetic acid; hydrochloric salt], the IC50 came to 2.62 mM. `C[C@@H]1C[C@H](C)CC(CNC2CCCCC2)(CC(=O)O)C1` (stereo partly drawn) [Example 47, ((3R, 5S)-1-Cyclohexylaminomethyl-3,5-dimethyl-cyclohexyl)-acetic acid; hydrochloride salt]: the IC50 worked out at 15.6 mM.

Turning to `C[C@@H]1C[C@H](C)C[C@@](CC(=O)O)(CN(C)Cc2ccccc2)C1` [Example 14, 1α,3β,5β-{1-[(Benzyl-methyl-amino)-methyl]-3,5-dimethylcyclohexyl}-acetic acid; hydrochloride salt], the IC50 stood at 8.59 mM. `C[C@@H]1C[C@H](C)CC(CC(=O)O)(CC(=O)O)C1` [Example 48, ((3R,5S)-1-Carboxymethyl-3,5-dimethyl-cyclohexyl)-acetic acid]: the IC50 turned out to be 8.53 mM. On to `C[C@@H]1C[C@H](C)C[C@](CN)(CC(=O)O)C1` [Example 8, 1α,3β,5β-(1-Aminomethyl-3,5-dimethyl-cyclohexyl)-acetic acid hydrochloride], for which the IC50 worked out at 0.074 mM.

Staying with this assay, now noted: rBCATc IC50, 25 µM [14C] L-leucine, 10 mM 2-oxoglutarate, pH 8.3, 10 min, 22 °C.
The molecule `CC1CCCCC1(CN)CC(=O)O` (single isomer, unassigned) [Example 2, (1-Aminomethyl-2-methyl-cyclohexyl)-acetic acid hydrochloride] displayed a 50% inhibitory concentration (IC50) of 1.14 mM.

For the origin of these results see patent EP1157000B1 (Warner-Lambert Company LLC, priority 1999, dated 2001).
